BindingDB's records for patent US12319672 (Idorsia Pharmaceuticals, 2025)
pIC50: −log10 of the molar value.

Assays:
Galectin-1 = Galectin-1 (Homo sapiens, UniProt P09382); assay: Inhibitory Activity Assay
Procedure: (§1) The inhibitory activity of compounds is determined in competitive binding assays. This spectrophotometric assay measures the binding of biotinylated human Gal-3 (hGal-3) or human Gal-1 (hGal-1), respectively, to a microplate-adsorbed glycoprotein, asialofetuin (ASF) (Proc Natl Acad Sci USA. 2013 Mar. 26; 110(13):5052-7.). Alternatively, and preferably, a human Gal-1 version in which all six cysteines are substituted by serines may be used.Briefly, compounds are serially diluted in DMSO (working dilutions). ASF-coated 384 well plates are supplemented with 22.8 μL/well of biotinylated hGal-3 or hGal-1 in assay buffer (i.e. 300-1000 ng/mL biotinylated hGal-3 or hGal-1) to which 1.2 μL of compound working dilutions are added and mixed.Plates are incubated for 3 hours at 4° C., then washed with cold assay buffer (3×50 uL), incubated for 1 hour with 25 μL/well of a streptavidin-peroxidase solution (diluted in assay buffer to 80 ng/mL) at 4° C., followed by further washing steps with assay buffer (3×50 uL). Finally, 25 μL/well of ABTS substrate is added.

Galectin-3 = Galectin-3 (Homo sapiens, UniProt P17931); assay: Inhibitory Activity Assay
Procedure: as §1

Galectin-3, sequence (P17931 whole entry): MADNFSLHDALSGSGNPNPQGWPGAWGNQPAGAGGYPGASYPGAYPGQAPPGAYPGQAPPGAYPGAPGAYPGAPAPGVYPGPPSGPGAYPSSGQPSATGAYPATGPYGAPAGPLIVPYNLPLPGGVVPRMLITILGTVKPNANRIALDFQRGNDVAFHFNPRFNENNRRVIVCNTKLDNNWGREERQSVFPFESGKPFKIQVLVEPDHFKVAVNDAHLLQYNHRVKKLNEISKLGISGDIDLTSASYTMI
Galectin-1, sequence (P09382 whole entry): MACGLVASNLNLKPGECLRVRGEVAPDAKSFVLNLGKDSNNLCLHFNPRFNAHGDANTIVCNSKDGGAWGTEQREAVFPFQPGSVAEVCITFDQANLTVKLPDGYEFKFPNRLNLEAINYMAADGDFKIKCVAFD

SMILES | pIC50 (Galectin-1) | pIC50 (Galectin-3)
CO[C@@H]1[C@@H](n2cc(-c3cc(F)c(Cl)c(F)c3)nn2)[C@@H](O)[C@@H](CO)O[C@@H]1Cc1cc(C2CCN(C(C)=O)CC2)on1 [US12319672, Example 1.167] | 6.04 | 7.40
CO[C@@H]1[C@@H](n2cc(-c3ccc(F)c(F)c3F)nn2)[C@@H](O)[C@@H](CO)O[C@@H]1Cc1cc(C2(C#N)CCCC2)on1 [US12319672, Example 1.277] | 5.83 | 6.85
CO[C@@H]1[C@@H](n2cc(-c3ccc(Br)c(F)c3F)nn2)[C@@H](O)[C@@H](CO)O[C@@H]1Cc1cc(C2CCN(S(C)(=O)=O)CC2)on1 [US12319672, Example 1.155] | 5.98 | 7.66
CC(=O)N1CCC(c2cc(C[C@H]3O[C@H](CO)[C@H](O)[C@H](n4cc(-c5cc(F)c(F)c(F)c5)nn4)[C@H]3O)no2)CC1 [US12319672, Example 3.17] | 6.02 | 7.34
CO[C@@H]1[C@@H](n2cc(-c3ccc(F)c(F)c3F)nn2)[C@@H](O)[C@@H](CO)O[C@@H]1Cc1cc(-c2ccc(F)c(F)c2F)on1 [US12319672, Example 1.230] | < 4.00 | 6.27
Cc1nc2ccc(-c3cn([C@H]4[C@@H](O)[C@@H](CO)O[C@H](CC5CC(C6CCN(C(=O)OC(C)(C)C)CC6)=NO5)[C@@H]4O)nn3)cc2s1 (some centres undefined) [US12319672, Example 1.299] | 5.42 | 5.39
CO[C@@H]1[C@@H](n2cc(-c3ccc(C)c(F)c3F)nn2)[C@@H](O)[C@@H](CO)O[C@@H]1Cc1cc(C2(O)CCC2)no1 [US12319672, Example 2.57] | 5.84 | 7.09
CO[C@@H]1[C@@H](n2cc(-c3ccc(C)c(F)c3F)nn2)[C@H]2OC(C)(C)OC[C@H]2O[C@@H]1Cc1cc(C(C)c2ccccc2)no1 (some centres undefined) [US12319672, Example 1.341] | 4.80 | 6.70
CC(C)(C)c1cc(C[C@H]2O[C@H](CO)[C@H](O)[C@H](n3cc(-c4ccc(Cl)c(F)c4F)nn3)[C@H]2O)on1 [US12319672, Example 1.302] | 6.00 | 7.44
CO[C@@H]1[C@@H](n2cc(-c3ccc(Cl)c(F)c3F)nn2)[C@@H](O)[C@@H](CO)O[C@@H]1Cc1cc(C2CCN(C(C)=O)CC2)on1 [US12319672, Example 1.163] | 6.15 | 7.37
CO[C@@H]1[C@@H](n2cc(-c3cc(F)c(F)c(F)c3)nn2)[C@@H](O)[C@@H](CO)O[C@@H]1CC1=NOC(C(C)(C)O)C1 (some centres undefined) [US12319672, Example 1.68] | 5.29 | 6.33
CO[C@@H]1[C@@H](n2cc(-c3ccc(Cl)c(F)c3F)nn2)[C@@H](O)[C@@H](CO)O[C@@H]1Cc1cc(C2(C#N)CCCC2)on1 [US12319672, Example 1.279] | 5.49 | 6.92
